Laboratory results from ChEMBL document CHEMBL1147010, “Aziridine-2,3-dicarboxylate inhibitors targeting the major cysteine protease of Trypanosoma brucei as lead trypanocidal agents” (Bioorg Med Chem Lett, 2006).
Converted amounts (≈) assume the structure as drawn. The source made the active and inactive calls. The calls are words filed in the database; no cut-off is given here.

Legend:
[1] = system: Trypanosoma brucei brucei; assay: Trypanocidal activity against Trypanosoma brucei brucei after 48 hrs; format: functional, organism-based
Rhodesain = Rhodesain (Trypanosoma brucei rhodesiense, UniProt Q95PM0); assay: Inhibition of Trypanosoma brucei rhodesiense rhodesain
J774 [2] = assay: Selectivity index, IC50 for J774.1/IC50 for Trypanosoma brucei brucei; format: functional
J774 [3] = assay: Cytotoxicity against J774.1 cell line after 48 hrs; format: functional, cell-based; conditions: Mus musculus, J774, 48 h
[4] = target: Rhodesain (Trypanosoma brucei rhodesiense) (UniProt Q95PM0); assay: Inhibition of Trypanosoma brucei rhodesiense rhodesain at 140 uM
Rhodesain (Trypanosoma brucei rhodesiense), sequence (Q95PM0 1-450): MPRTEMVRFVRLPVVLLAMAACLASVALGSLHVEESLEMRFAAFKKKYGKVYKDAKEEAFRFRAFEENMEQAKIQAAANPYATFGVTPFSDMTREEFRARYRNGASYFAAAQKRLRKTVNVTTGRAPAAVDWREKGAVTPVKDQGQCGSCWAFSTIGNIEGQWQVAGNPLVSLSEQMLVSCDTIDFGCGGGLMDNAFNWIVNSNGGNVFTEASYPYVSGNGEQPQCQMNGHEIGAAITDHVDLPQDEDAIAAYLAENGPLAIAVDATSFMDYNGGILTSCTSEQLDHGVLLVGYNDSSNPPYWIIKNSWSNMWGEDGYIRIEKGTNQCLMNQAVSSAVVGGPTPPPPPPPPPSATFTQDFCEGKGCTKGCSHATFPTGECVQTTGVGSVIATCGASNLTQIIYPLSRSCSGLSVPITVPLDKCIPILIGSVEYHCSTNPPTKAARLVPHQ

Rhodesain, sequence (Q95PM0 whole entry): as the sequence (Q95PM0 1-450) above

| SMILES | IC50 [1] | Ki (Rhodesain) | Ratio IC50 (J774 [2]) | IC50 (J774 [3]) | inhibition [4] | MIC [1] |
| --- | --- | --- | --- | --- | --- | --- |
| C[C@@H](NC(=O)[C@H](Cc1ccccc1)NC(=O)OC(C)(C)C)C(=O)N1[C@H](C(=O)OCc2ccccc2)[C@H]1C(=O)OCc1ccccc1 | 30.5 µM | 1.2 µM | >3.2 | > 100 µM |  |  |
| C[C@H](NC(=O)[C@H](Cc1ccccc1)NC(=O)OC(C)(C)C)C(=O)N1[C@H](C(=O)OCc2ccccc2)[C@H]1C(=O)OCc1ccccc1 | 26.7 µM | 1.9 µM | >3.7 | > 100 µM |  |  |
| C[C@H](NC(=O)[C@H](Cc1ccccc1)NC(=O)OC(C)(C)C)C(=O)N1[C@H](C(=O)O)[C@H]1C(=O)O |  | 0.5 µM |  |  |  |  |
| CCOC(=O)[C@@H]1[C@@H](C(=O)OCC)N1C(=O)[C@@H]1CN1C(=O)[C@@H](CC(C)C)NC(=O)OC(C)(C)C | 28.3 µM | 1.6 µM | >3.5 | > 100 µM |  |  |
| C[C@@H](NC(=O)[C@H](Cc1ccccc1)NC(=O)OC(C)(C)C)C(=O)N1[C@H](C(=O)O)[C@H]1C(=O)O |  | 0.8 µM |  |  |  |  |
| CCOC(=O)[C@H]1[C@H](C(=O)OCC)N1C(=O)[C@H]1CCN1C(=O)[C@H](CC(C)C)NC(=O)OC(C)(C)C | 20.6 µM | 3.1 µM | >4.8 | > 100 µM |  |  |
| CC(C)(C)OC(=O)NCC(=O)N1CCC[C@H](C(=O)N2[C@H](C(=O)OCc3ccccc3)[C@H]2C(=O)OCc2ccccc2)C1 | 36.4 µM | 1.1 µM | >2.7 | > 100 µM |  |  |
| CC(C)C[C@H](NC(=O)OC(C)(C)C)C(=O)N1CCC[C@@H]1C(=O)N1[C@H](C(=O)OCc2ccccc2)[C@H]1C(=O)OCc1ccccc1 | 31.4 µM | 1.2 µM | >3.2 | > 100 µM |  |  |
| CCOC(=O)[C@H]1[C@H](C(=O)OCC)N1C(=O)C1CCN(C(=O)[C@H](CC(C)C)NC(=O)OC(C)(C)C)CC1 | > 100 µM | 3.3 µM |  | > 100 µM |  |  |
| C[C@H](NC(=O)[C@@H](Cc1ccccc1)NC(=O)OC(C)(C)C)C(=O)N1[C@H](C(=O)O)[C@H]1C(=O)O |  | 0.1 µM |  |  |  |  |
| CCOC(=O)[C@H]1[C@H](C(=O)OCC)N1C(=O)[C@H]1CCCN(C(=O)[C@H](CC(C)C)NC(=O)OC(C)(C)C)C1 | > 100 µM | 1.9 µM |  | > 100 µM |  |  |
| CC(C)C[C@@H](NC(=O)OC(C)(C)C)C(=O)N1CCC[C@H](C(=O)N2[C@H](C(=O)OCc3ccccc3)[C@H]2C(=O)OCc2ccccc2)C1 | 34 µM | 0.7 µM | >2.9 | > 100 µM |  |  |
| CCOC(=O)[C@@H]1[C@@H](C(=O)OCC)N1C(=O)[C@@H]1CCCN(C(=O)[C@H](CC(C)C)NC(=O)OC(C)(C)C)C1 | > 100 µM | 1 µM |  | > 100 µM |  |  |
| CC(C)C[C@H](NC(=O)OC(C)(C)C)C(=O)N1CCC(C(=O)N2[C@H](C(=O)O)[C@H]2C(=O)O)CC1 |  |  |  |  | inactive |  |
| CC1CS(=O)(=O)CCN1/N=C/c1ccc([N+](=O)[O-])o1 (stereo not given) [NIFURTIMOX] | 3.4 µM |  | >58 | > 200 µM |  | 200 µM (≈ 57.5 µg/mL) |
| CC(C)(C)OC(=O)NCC(=O)N1CCC[C@H](C(=O)N2[C@H](C(=O)O)[C@H]2C(=O)O)C1 |  |  |  |  | inactive |  |
| CC(C)C[C@@H](NC(=O)OC(C)(C)C)C(=O)N1CCC[C@H](C(=O)N2[C@H](C(=O)O)[C@H]2C(=O)O)C1 |  |  |  |  | inactive |  |
| CC(C)C[C@H](NC(=O)OC(C)(C)C)C(=O)N1CCC[C@H]1C(=O)N1[C@H](C(=O)O)[C@H]1C(=O)O |  |  |  |  | inactive |  |
| CC(C)C[C@@H](NC(=O)OC(C)(C)C)C(=O)N1CCC[C@@H]1C(=O)N1[C@H](C(=O)OCc2ccccc2)[C@H]1C(=O)OCc1ccccc1 | 35.2 µM | 2.8 µM | >2.8 | > 100 µM |  |  |
| CCOC(=O)[C@@H]1[C@@H](C(=O)OCC)N1C(=O)[C@H]1CCCN(C(=O)[C@H](CC(C)C)NC(=O)OC(C)(C)C)C1 | > 100 µM | 1 µM |  | > 100 µM |  |  |

| SMILES | IC50 [1] | Ki (Rhodesain) | Ratio IC50 (J774 [2]) | IC50 (J774 [3]) | inhibition [4] | MIC [1] |
| --- | --- | --- | --- | --- | --- | --- |
| C[C@@H](NC(=O)[C@@H](Cc1ccccc1)NC(=O)OC(C)(C)C)C(=O)N1[C@H](C(=O)O)[C@H]1C(=O)O |  | 5 µM |  |  |  |  |
| CC(C)(C)OC(=O)NCC(=O)N1CCC[C@H]1C(=O)N1[C@H](C(=O)OCc2ccccc2)[C@H]1C(=O)OCc1ccccc1 | > 100 µM | 3.1 µM |  | > 100 µM |  |  |
| CC(C)C[C@@H](NC(=O)OC(C)(C)C)C(=O)N1CCC[C@H]1C(=O)N1[C@H](C(=O)OCc2ccccc2)[C@H]1C(=O)OCc1ccccc1 | 34.3 µM | 1.1 µM | >2.9 | > 100 µM |  |  |
| CCOC(=O)[C@@H]1[C@@H](C(=O)OCC)N1C(=O)C1CCN(C(=O)[C@H](CC(C)C)NC(=O)OC(C)(C)C)CC1 | > 100 µM | 1.4 µM |  | > 100 µM |  |  |
| CC(C)C[C@H](NC(=O)OC(C)(C)C)C(=O)N1CCC[C@H]1C(=O)N1[C@H](C(=O)OCc2ccccc2)[C@H]1C(=O)OCc1ccccc1 | 11.1 µM | 2.3 µM | >11.3 | > 125 µM |  | 125 µM (≈ 77.7 µg/mL) |
| CCOC(=O)[C@@H]1[C@@H](C(=O)OCC)N1C(=O)[C@@H]1CCCN1C(=O)[C@H](CC(C)C)NC(=O)OC(C)(C)C | > 100 µM | 3.1 µM |  | > 100 µM |  |  |
| CC(C)(C)OC(=O)NCC(=O)N1CCC[C@@H]1C(=O)N1[C@H](C(=O)OCc2ccccc2)[C@H]1C(=O)OCc1ccccc1 | > 100 µM | 1.6 µM |  | > 100 µM |  |  |
| CC(C)C[C@H](NC(=O)OC(C)(C)C)C(=O)N1CC[C@H]1C(=O)N1[C@H](C(=O)OCc2ccccc2)[C@H]1C(=O)OCc1ccccc1 | 30.8 µM | 0.8 µM | 1.2 | 37.2 µM |  |  |
| CC(C)C[C@H](NC(=O)OC(C)(C)C)C(=O)N1CC[C@@H]1C(=O)N1[C@H](C(=O)OCc2ccccc2)[C@H]1C(=O)OCc1ccccc1 | 30.8 µM | 0.8 µM | 1.2 | 37.2 µM |  |  |
| CCOC(=O)[C@H]1[C@H](C(=O)OCC)N1C(=O)[C@@H]1CCN1C(=O)[C@H](CC(C)C)NC(=O)OC(C)(C)C | 20.6 µM | 3.1 µM | >4.8 | > 100 µM |  |  |
| CC(C)(C)OC(=O)NCC(=O)N1CCCC[C@H]1C(=O)N1[C@H](C(=O)OCc2ccccc2)[C@H]1C(=O)OCc1ccccc1 | 27.6 µM | 0.7 µM |  |  |  |  |
| CC(C)(C)OC(=O)NCC(=O)N1CCC[C@H]1C(=O)N1[C@H](C(=O)O)[C@H]1C(=O)O | > 100 µM | 0.9 µM |  | > 100 µM |  |  |
| CCOC(=O)[C@H]1[C@H](C(=O)OCC)N1C(=O)CCCCCNC(=O)CCCC[C@@H]1SC[C@@H]2NC(=O)N[C@@H]21 | > 100 µM | 0.6 µM |  | > 100 µM |  |  |
| CC(C)C[C@@H](NC(=O)OC(C)(C)C)C(=O)N1CCC[C@@H](C(=O)N2[C@H](C(=O)OCc3ccccc3)[C@H]2C(=O)OCc2ccccc2)C1 | 34 µM | 0.7 µM | >2.9 | > 100 µM |  |  |
| CC(C)C[C@H](NC(=O)OC(C)(C)C)C(=O)N1CCC[C@H]1C(=O)N1[C@@H](C(=O)OCc2ccccc2)[C@@H]1C(=O)OCc1ccccc1 | 10.9 µM | 0.5 µM | >11.5 | > 125 µM |  | 125 µM (≈ 77.7 µg/mL) |
| CC(C)C[C@H](NC(=O)OC(C)(C)C)C(=O)N1CCC[C@H](C(=O)N2[C@H](C(=O)OCc3ccccc3)[C@H]2C(=O)OCc2ccccc2)C1 | 25.6 µM | 0.6 µM | >3.9 | > 100 µM |  |  |
| CC(C)C[C@H](NC(=O)OC(C)(C)C)C(=O)N1CCC[C@@H](C(=O)N2[C@H](C(=O)OCc3ccccc3)[C@H]2C(=O)OCc2ccccc2)C1 | 25.6 µM | 0.6 µM | >3.9 | > 100 µM |  |  |
| CCOC(=O)[C@H]1[C@H](C(=O)OCC)N1C(=O)[C@@H]1CCCN(C(=O)[C@H](CC(C)C)NC(=O)OC(C)(C)C)C1 | > 100 µM | 1.9 µM |  | > 100 µM |  |  |
| CC(C)(C)OC(=O)NCC(=O)N1CCC[C@@H](C(=O)N2[C@H](C(=O)OCc3ccccc3)[C@H]2C(=O)OCc2ccccc2)C1 | 36.4 µM | 1.1 µM | >2.7 | > 100 µM |  |  |
| C[C@@H](NC(=O)[C@@H](Cc1ccccc1)NC(=O)OC(C)(C)C)C(=O)N1[C@H](C(=O)OCc2ccccc2)[C@H]1C(=O)OCc1ccccc1 | 25.8 µM | 3.9 µM | >3.8 | > 100 µM |  |  |
